One data set relates to P. aeruginosa MB5002. Kind of data set: in vitro antibacterial activity by agar plate dilution method (MIC). It counts as cell-based. Particulars: Pseudomonas aeruginosa, read-out: Minimum Inhibitory Concentration (MIC). As to the method:
(§1) One platinum loopful of each test microorganism incubated overnight in Mueller Hinton broth, was inoculated to Mueller Hinton agar (inoculum size: 10^6 CFU/ml). Such culture media contained antibacterial agents in various concentrations. After incubation at 37° C. for 16 hours, the minimum inhibitory concentrations (MIC: μg/ml) were measured.
(§2) The minimum inhibitory concentrations and the DHP-I susceptibility of the compounds of the present invention were compared with imipenem and the compound of REFERENCE EXAMPLE 13.

The test system of the next data set is P. aeruginosa MB5178. The data set is described as above. It counts as cell-based. The note with it: Pseudomonas aeruginosa, MB5178, 16 h, read-out: Minimum Inhibitory Concentration (MIC). On the procedure:
as §1, §2

A short description of data set [1]: Pharmacokinetics in mice after s.c. dosing, bioassay of plasma and urine. Particulars: mouse, sc, 20 mg/kg; for AUC / Cmax / Tmax / half-life: plasma; for dose excreted at 6 h: urine. On the procedure: Pharmacokinetics in mice: Groups of three 20 g ddY male mice were given a single dose of 20 mg/kg of the compound of EXAMPLE 19 and imipenem by sc route. One group of three mice was placed in a metabolism cage designed to collect the urine free from fecal contamination. At a specified time after dosing, blood and urine samples were collected from a group for bioassay. The plasma was collected from the pooled blood after centrifugation. Microbiological assays: Bioactivity in the specimens was measured was by the standard disk diffusion procedure using Bacillus subtilis ATCC12432 as a test organism.

The subject of data set [2] is renal dehydropeptidase I (DHP-I). Nature of the data set: DHP-I susceptibility (method by Kropp et al.), ratio to imipenem. It counts as in vitro ADME. The note with it: ratio to imipenem (=1.0); the smaller the value, the higher the stability.
Excerpt: Further, the DHP-I susceptibility was quantitatively analyzed by the method by Kropp et al., Antimicrob. Agents Chemother., vol. 22, p. 62-70 (1982), whereby the smaller the numerical value representing the ratio to imipenem (=1.0), the higher the stability.
as §2

For data set [3] the following is noted: due to the decomposition products; cited from earlier work.
In data set [4] the test system is highly methicillin resistant Staphylococcus aureus which is resistant to imipenem and imipenem resistant Pseudomonas aeruginosa. Particulars: clinical field; cited from earlier work.
The test system of data set [5] is renal dehydropeptidase I (DHP-I). The note with it: cited from earlier work.
A further data set has as its system Pseudomonas aeruginosa. The note with it: superior to thienamycin; cited from earlier work.
Data set [6] deals with various gram positive bacteria and gram negative bacteria. The note with it: cited from earlier work.
The conditions of data set [7]: imipenem compared with thienamycin; cited from earlier work.
For data set [8] the following is noted: in vivo; cited from earlier work.
[9] abbreviates: P. aeruginosa MB5002, Mueller Hinton agar, inoculum 10^6 CFU/ml, 37° C., 16 hours.
Setting [10] is: P. aeruginosa MB5178, Mueller Hinton agar, inoculum 10^6 CFU/ml, 37° C., 16 hours.

Converted amounts (≈) assume the structure as drawn. Where two headings read alike, the source gives them in different places.

Broadly, the AUC is the area under the concentration-time curve, a measure of exposure. High values mean high exposure, low ones low exposure. One may read the Cmax as the highest concentration seen after dosing. The Tmax is the time at which the peak concentration occurs. By half-life is commonly meant the time in which the quantity being followed falls by half.

For `CC(CN)C[C@@H]1C[C@H](SC2=C(C(=O)O)N3C(=O)[C@H]([C@@H](C)O)[C@H]3[C@H]2C)CN1` (single isomer, unassigned) [Example 7], the MIC in the data set with P. aeruginosa MB5002 (setting [9]) is 0.78 µg/mL (≈ 2.03 µM).

Turning to `C[C@@H](O)[C@H]1C(=O)N2C(C(=O)O)=C(S[C@@H]3CN[C@H](C(O)CCN)C3)[C@H](C)[C@H]12` (single isomer, unassigned) [Example 9], the MIC in the data set with P. aeruginosa MB5002 (setting [9]) amounted to 0.78 µg/mL (≈ 2.02 µM); with P. aeruginosa MB5178 (setting [10]), 1.56 µg/mL (≈ 4.05 µM).

For the compound `C[C@@H](O)[C@H]1C(=O)N2C(C(=O)O)=C(S[C@@H]3CN[C@H](C(O)CN)C3)[C@H](C)[C@H]12` (single isomer, unassigned) [Example 13], the MIC came to 1.56 µg/mL (≈ 4.2 µM) in the data set with P. aeruginosa MB5002 (setting [9]) and 3.13 µg/mL (≈ 8.43 µM) in the data set with P. aeruginosa MB5178 (setting [10]).

Turning to `CNCC[C@@H](O)[C@@H]1C[C@H](SC2=C(C(=O)O)N3C(=O)[C@H]([C@@H](C)O)[C@H]3[C@H]2C)CN1` [Example 19], in data set [1], the exposure (AUC) was 13800 ng·h/mL, the concentration peaked (Cmax) at 29000 ng/mL, the time of peak concentration (Tmax) came out at 10.8 min and the half-life is 7.8 min. Besides, the dose excreted at 6 h in data set [1] is 62.5%.

In the case of `C[C@@H](O)[C@H]1C(=O)N2C(C(=O)O)=C(SCCN=CN)C[C@H]12` [Imipenem, (5R,6S,8R)-3-[[2-(formimidoylamino)ethyl]thio]-6-(1-hydroxyethyl)-7-oxo-1-azabicyclo[3.2.0]hept-2-en-2-carboxylic acid monohydrate], the DHP-I susceptibility in data set [2] was found to be 1.0. Also, the “toxicity against the kidney” value in data set [3] is “presents toxicity against the kidney due to the decomposition products”. Moreover, in [1], the AUC came to 9500 ng·h/mL, the Cmax was 21500 ng/mL, the time of peak concentration (Tmax) was 10.8 min and the half-life was 7.2 min. The compound further displayed a dose excreted at 6 h in data set [1] of 21.5%. In addition, the “treating effects against resistant bacteria” value in data set [4] is “does not show adequate treating effects”. Moreover, the “decomposition by DHP-I” value in data set [5] is recorded as “likely to be decomposed by DHP-I in the human kidney”. Moreover, the “antibacterial activities compared with thienamycin” value with Pseudomonas aeruginosa is listed as 2 to 4 times. Also, in [6] (various types of bacteria), the “antibacterial activities compared with thienamycin” value is listed as “equal or higher level than thienamycin”. For the same compound, the MIC in the data set on P. aeruginosa MB5002 (MB5002, 16 h) came out at 1.56 µg/mL. Further, the MIC with P. aeruginosa MB5178 amounted to 25 µg/mL. For the same compound, the “stability in the solid form or in an aqueous solution” value in data set [7] is recorded as “remarkably improved over thienamycin”.

For the compound `CC(=O)NC[C@@H]1C[C@H](SC2=C(C(=O)O)N3C(=O)[C@H]([C@@H](C)O)[C@H]3[C@H]2C)CN1` [compound 13, (1R,5S,6S)-2-[(2S,4S)-2-(Acetylaminomethyl)pyrrolidin-4-ylthio]-6-[(1R)-1-hydroxyethyl]-1-methyl-1-carbapen-2-em-3-carboxylic Acid], in data set [2], the DHP-I susceptibility was 0.7. Further, the MIC came to 6.25 µg/mL (≈ 16.3 µM) in the data set with P. aeruginosa MB5002 (setting [9]) and 12.5 µg/mL (≈ 32.6 µM) in the data set with P. aeruginosa MB5178 (setting [10]).

Turning to `C[C@@H](O)[C@H]1C(=O)N2C(C(=O)O)=C(SCCN)C[C@H]12` [thienamycin], the “recovery rate in the urine” value in [8] is given as “low”. The “decomposition by DHP-I” value in data set [5] is recorded as “likely to be decomposed”. The antibacterial activities result in [6] (statement in words, prior art) was “strong antibacterial activities over a wide range against gram positive bacteria and gram negative bacteria”.
